Target: T1, (H^+ +K^+)-ATPase (Canis lupus familiaris, UniProt P50996)
T1 construct: from tissue; host or cells: gastric glandular mucosa of mongrel dogs (microsomes from the 15-30% sucrose interface, lyophilized)
Assay: Inhibition of (H^+ +K^+)-ATPase from Canine Gastric Mucosa
Assay type: biochemical, canine (mongrel dogs)
Settings: for IC50: canine gastric mucosa microsomes, 30 min preincubation at 37°, pH 6.0, K^+-stimulated minus basal activity
Description: The antisecretory activity of the compounds of this invention illustrated in the Examples was tested by the following method.
Inhibition of ([…] +K^+)-ATPase from Canine Gastric Mucosa
Mongrel dogs weighing 15 to 25 kilograms were fasted for twenty-four hours, with water provided ad libitum. The animals were anesthetized with pentobarbital and the stomachs were removed. Subsequent tissue manipulations and subcellular fractionations were performed at 0° to 4° C. After the stomachs were cut open and rinsed with tap water, the antral and cardiac regions were removed and the remaining tissue was rinsed three times in saline. The glandular mucosa was removed mechanically, chopped finely in a medium containing 10 mM Tris hydrochloride (pH 7.4) and 250 mM sucrose, and homogenized. The homogenate was centrifuged at 20,000×g for twenty minutes and the pellet discarded. The supernatant was then centrifuged at 150,000xg for ninety minutes and the supernatant discarded. The pellet was resuspended in the Tris-HCl/sucrose medium by homogenization. Part (2 ml) of the resultant microsomal suspension was layered onto a step gradient consisting of 9 ml of 15% sucrose above 12 ml of 30% sucrose, each sucrose solution being buffered with 10 mM Tris hydrochloride (pH 7.4) containing 0.01% sodium azide. The microsomes retained at the 15-30% sucrose interface, after centrifugation at 250,000×g for sixty minutes, were used as the source of (H^+ +K^+)-ATPase. Microsomal preparations were lyophilized, a process that assured potassium ion permiability, and stored at -10° until used.
The (H^+ +K^+)-ATPase activity for each test compound was determined, in duplicate, by measuring the release of inorganic phosphate, which was assayed according to the method of J. ChandraRajan and L. Klein., Anal. Biochem., 72. 407-412 (1976). […] At least fifteen minutes later, the optical absorbance at 870 nm (which was proportional to inorganic phosphate concentration up to 100 nmoles per tube, as determined by a standard curve) was obtained. […]

T1 sequence (P50996 whole entry): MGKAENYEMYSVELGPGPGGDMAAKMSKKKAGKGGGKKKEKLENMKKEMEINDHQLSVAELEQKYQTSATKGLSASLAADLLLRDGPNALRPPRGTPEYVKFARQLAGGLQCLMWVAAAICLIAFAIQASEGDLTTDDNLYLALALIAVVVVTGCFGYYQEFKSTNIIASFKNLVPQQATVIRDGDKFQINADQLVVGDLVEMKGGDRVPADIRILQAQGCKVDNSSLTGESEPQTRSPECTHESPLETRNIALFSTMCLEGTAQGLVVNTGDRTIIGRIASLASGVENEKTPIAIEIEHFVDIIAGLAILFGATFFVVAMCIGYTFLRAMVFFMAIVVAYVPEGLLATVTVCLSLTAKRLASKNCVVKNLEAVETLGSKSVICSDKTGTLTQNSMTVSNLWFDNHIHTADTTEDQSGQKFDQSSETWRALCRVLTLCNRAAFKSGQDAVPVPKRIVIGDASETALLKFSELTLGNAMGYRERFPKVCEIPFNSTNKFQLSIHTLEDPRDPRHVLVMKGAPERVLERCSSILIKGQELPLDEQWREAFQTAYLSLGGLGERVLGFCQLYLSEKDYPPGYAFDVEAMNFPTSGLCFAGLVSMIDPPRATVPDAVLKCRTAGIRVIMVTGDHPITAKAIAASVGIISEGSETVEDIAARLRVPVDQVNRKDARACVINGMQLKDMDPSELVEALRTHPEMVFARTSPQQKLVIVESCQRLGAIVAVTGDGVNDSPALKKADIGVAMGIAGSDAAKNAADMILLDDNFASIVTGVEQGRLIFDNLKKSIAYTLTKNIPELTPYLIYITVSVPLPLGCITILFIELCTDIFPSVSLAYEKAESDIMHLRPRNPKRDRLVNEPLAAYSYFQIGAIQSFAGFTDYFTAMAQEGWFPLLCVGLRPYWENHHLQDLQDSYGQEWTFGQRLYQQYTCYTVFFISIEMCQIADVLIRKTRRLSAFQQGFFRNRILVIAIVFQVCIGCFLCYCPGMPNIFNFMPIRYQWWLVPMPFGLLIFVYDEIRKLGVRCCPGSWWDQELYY
T1 sequence (P33704 whole entry partner): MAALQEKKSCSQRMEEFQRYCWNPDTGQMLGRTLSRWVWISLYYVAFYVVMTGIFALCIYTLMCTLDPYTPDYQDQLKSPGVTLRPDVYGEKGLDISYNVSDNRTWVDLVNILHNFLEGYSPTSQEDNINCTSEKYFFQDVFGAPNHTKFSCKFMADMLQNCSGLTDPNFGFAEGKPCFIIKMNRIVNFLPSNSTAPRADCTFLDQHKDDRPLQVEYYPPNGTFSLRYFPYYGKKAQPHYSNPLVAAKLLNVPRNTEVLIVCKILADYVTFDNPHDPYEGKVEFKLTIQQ

Structure (SMILES) | IC50 | inhibition of (H^+ +K^+)-ATPase activity (in words) (as shown in Table I)
[O-][S+](Cc1cnc2ccccn12)c1nc2ccccc2[nH]1 (stereo not drawn) [Example 2, 2-[(imidazo[1,2-a]pyridin-3-ylmethyl)sulfinyl]-1H-benzimidazole 1/4 hydrate] | 3.88 µM | –
[O-][S+](Cc1cn2ccccc2n1)c1nc2ccccc2[nH]1 (stereo not drawn) [Example 4, 2-[(imidazo[1,2-a]pyridin-2-ylmethyl)sulfinyl]-1H-benzimidazole] | > 100 µM | not inhibiting (H^+ +K^+)-ATPase activity

Reference: US4721718A, “2-[(imidazo[1,2-a]pyridin-3-ylmethyl)sulfinyl]-1H-benzimidazoles useful in the treatment and prevention of ulcers” (G. D. Searle & Co., priority 1986, dated 1988)
